Measurements as given in patent US20250186546A1, “Compositions and Methods to Prevent, Inhibit or Treat Autoimmune and Vascular Disease” (priority 2023, published 2025).

Key:
[1] = tested on: BMDMs; assay: Engulfment of ACs with increased rigidity by BMDMs; format: cell-based, mouse; settings: GA 10 nM, 1 minute, control and Wdfy3 knockout BMDMs
Procedure: AC preparation and labeling for efferocytosis assays: Jurkat cells (about 10 μm, a human T cell line) and mouse thymocytes (about 5 μm, isolated from mouse thymi) are treated with staurosporine for 3 hours to induce apoptosis. The method routinely yields greater than 90% Annexin V+ ACs (Shi et al., 2022). […] Mouse RBC are isolated from whole blood freshly and opsonized by IgG (Sosale et al., 2015). Storage at 4° C. for one-week or treatment by GA increases rigidity (Sosale et al., 2015). Mouse RBC are freshly prepared because commercial RBCs are often stored in cold conditions for shipment and thus likely already have increased rigidity. Cells will be labeled by TAMRA (10 μg/mL, 25 minutes, Invitrogen #C1171) that labels both DNA and protein (Shi et al., 2022; Bi et al., 2022). To assess uptake and acidification, ACs are fluorescently labeled by TAMRA (pH-insensitive) and pHrodo (20 ng/mL, 30 minutes, ThermoFisher #P35373, pH-sensitive and only fluoresces in acidic environments) (Shi et al., 2022; Bi et al., 2022). RBC are labeled by PKH26 which labels membrane lipids (Sigma PKH26GL-1KT) (Shi et al., 2022). Cell debris is prepared by passing labeled ACs 10 times through 27G needles (Puigdellivol et al., 2021). […] The % of macrophages that engulfed cargo will be quantified by FACS (Shi et al., 2022).

[2] = tested on: Jurkat cells; assay: Induction of apoptosis in Jurkat cells; format: cell-based, human; settings: 5 μg/mL, 3 hours
Procedure: Apoptotic Jurkat cells were generated by treating Jurkat cells with 5 μg/mL staurosporine in RPMI-1640 medium for 3 hours at a density of 2.5×10^6 cells/mL at 37° C., 5% CO2. The method routinely yields greater than 90% Annexin V^+ apoptotic Jurkat cells. After washing in 1×DPBS, apoptotic Jurkat cells were resuspended at a concentration of 2×10^7 cells/mL in Diluent C with either PKH67 (green fluorescence) or PKH26 (red fluorescence) per the manufacturer's instruction. After labeling, the cells were rinsed twice with DMEM basal medium containing 10% HI-FBS and immediately used for efferocytosis assay. For labeling with other fluorescent probes, ACs were resuspended at a density of 2.5×10^6 cells/mL in DMEM basal media and incubated with 20 ng/mL pHrodo red (Life Technologies) and/or Hoechst 33342 solution (20 mM, 1:10,000 dilution, Thermo Scientific) for 30 minutes, or NuclearMask Blue Stain solution (1:2000 dilution, Invitrogen) for 30 minutes. TAMRA staining was applied to ACs at a concentration of 2×10^7 cells/mL in DMEMbasal medium at 10 μg/mL for 25 minutes.

[3] = tested on: Jurkat cells and mouse thymocytes; assay: AC preparation for efferocytosis assays (Example 2); format: cell-based, human; settings: 3 hours
Procedure: AC preparation and labeling for efferocytosis assays: Jurkat cells (about 10 μm, a human T cell line) and mouse thymocytes (about 5 μm, isolated from mouse thymi) are treated with staurosporine for 3 hours to induce apoptosis. The method routinely yields greater than 90% Annexin V+ ACs (Shi et al., 2022). GA treatment at 10 mM for 1-minute leads to an increase in cell rigidity (Sosale et al., 2015). Mouse RBC are isolated from whole blood freshly and opsonized by IgG (Sosale et al., 2015). Storage at 4° C. for one-week or treatment by GA increases rigidity (Sosale et al., 2015). Mouse RBC are freshly prepared because commercial RBCs are often stored in cold conditions for shipment and thus likely already have increased rigidity. Cells will be labeled by TAMRA (10 μg/mL, 25 minutes, Invitrogen #C1171) that labels both DNA and protein (Shi et al., 2022; Bi et al., 2022). To assess uptake and acidification, ACs are fluorescently labeled by TAMRA (pH-insensitive) and pHrodo (20 ng/mL, 30 minutes, ThermoFisher #P35373, pH-sensitive and only fluoresces in acidic environments) (Shi et al., 2022; Bi et al., 2022). RBC are labeled by PKH26 which labels membrane lipids (Sigma PKH26GL-1KT) (Shi et al., 2022). Cell debris is prepared by passing labeled ACs 10 times through 27G needles (Puigdellivol et al., 2021). […] The % of macrophages that engulfed cargo will be quantified by FACS (Shi et al., 2022).

SMILES: O=CCCCC=O [Glutaraldehyde]
- engulfment of GA-treated (rigid) ACs by BMDMs [1]: increased engulfment
- engulfment of GA-treated (rigid) ACs by BMDMs ([1]; listed as GA): more effective engulfment

SMILES: CN[C@@H]1C[C@H]2O[C@@](C)([C@@H]1OC)n1c3ccccc3c3c4c(c5c6ccccc6n2c5c31)C(=O)NC4 [staurosporine]
- Annexin V+ apoptotic Jurkat cells [2]: greater than 90%
- Annexin V+ ACs [3]: greater than 90%
